From publication PMC4260654 (Cell host & microbe, 2014)

Experiments:
CLOSPO_02083 = biological target: T1, CLOSPO_02083 (Clostridium sporogenes, UniProt J7SZ64); assay: progress curves of tryptamine production by HPLC, kobs vs [I]; format: biochemical; details: read-out: Ki
T1 sequence (J7SZ64 1-417): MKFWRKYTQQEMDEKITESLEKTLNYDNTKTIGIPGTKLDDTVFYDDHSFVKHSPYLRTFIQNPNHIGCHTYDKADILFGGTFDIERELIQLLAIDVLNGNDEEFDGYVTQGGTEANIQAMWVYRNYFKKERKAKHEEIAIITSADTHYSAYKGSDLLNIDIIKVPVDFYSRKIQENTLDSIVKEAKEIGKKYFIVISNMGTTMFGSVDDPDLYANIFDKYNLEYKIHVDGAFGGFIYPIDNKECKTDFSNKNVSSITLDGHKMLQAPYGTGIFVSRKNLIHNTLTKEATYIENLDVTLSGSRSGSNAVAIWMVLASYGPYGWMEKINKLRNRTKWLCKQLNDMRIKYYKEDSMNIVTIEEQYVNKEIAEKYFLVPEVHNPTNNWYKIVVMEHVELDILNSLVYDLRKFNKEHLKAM

RUMGNA_01526 = RUMGNA_01526 (Mediterraneibacter gnavus, UniProt A7B1V0); assay: X-ray crystal structure at […] Å; format: biochemical; details: read-out: Ki

## NC(CF)(Cc1c[nH]c2ccccc12)C(=O)O (stereo in doubt) [I, (S)-α-FMT]
CLOSPO_02083
  KI (inactivation): 0.2 µM
RUMGNA_01526
  KI (inactivation): 178 µM
